Laboratory results from patent publication US20150307491A1, “SUBSTITUTED PYRIDOPYRAZINES AS SYK INHIBITORS” (HUTCHISON MEDIPHARMA LIMITED, priority 2012, published 2015).

Tested on: RBL-2H3 cells
Assay: IgE-induced Beta-hexosaminidase secretion in RBL-2H3 cells
Format: cell-based
Conditions: Rattus norvegicus; RBL-2H3 cells sensitized with SPE-7, stimulated with DNP-BSA
Procedure: For the determination of IgE-induced Beta-hexosaminidase secretion, RBL-2H3 cells (SIBS) are seeded in 96 well plates at 4×10^4 cells per well and incubated in MEM media with 15% FBS and Glutamine ([…]) for 4 hours and sensitized with 0.5 ug/ml of SPE-7 overnight. Cells are washed 3 times with Tyrode's buffer and incubated in the presence or absence of various concentrations of the testing compound for 20 min at 37° C., 5% CO2. Cells are stimulated by adding 10 μL of DNP-BSA solution (150 ng/mL) to each well and incubating for 45 minutes at 37° C., 5% CO2. Then, 45 μL of the supernatant is taken and incubated with 100 μL of 1 mM 4-Nitrophenyl N-acetyl-β-D-glucosaminide (Sigma, Cat. No. N9376), which is diluted in 0.05 M citrate buffer (pH 4.5), for 1.5 hr at 37° C. The reactions are quenched by adding 185 μL of 0.05 M sodium carbonate buffer (pH 10.0). Plates are read at 405 nm on Multiskan (MK 3).

SMILES	IC50
CS(=O)(=O)N1CCO[C@H](COc2nc(-c3ccc(N4CCOCC4)cc3)cc3nccnc23)C1 [Compound 12]	1 to 100 nM
CC(C)C(=O)N1CCO[C@H](COc2nc(-c3ccc(N(C)C)cc3)cc3nccnc23)C1 [Compound 68]	100 to 1000 nM
CC(=O)N1CCC(c2ccc(-c3cc4nccnc4c(OC[C@@H]4CN(C(C)=O)CCO4)n3)cc2)CC1 [Compound 54]	100 to 1000 nM
C[C@@H]1CN(c2ccc(-c3cc4nccnc4c(OC[C@@H]4CN(S(C)(=O)=O)CCO4)n3)cc2)C[C@H](C)O1 [Compound 19]	100 to 1000 nM
CCS(=O)(=O)N1CCN(c2ccc(-c3cc4nccnc4c(OC[C@@H]4CN(C(C)=O)CCO4)n3)cc2)CC1 [Compound 25]	100 to 1000 nM
CC(=O)N1CCO[C@H](COc2nc(-c3ccc(N4CCOCC4)cc3)cc3nccnc23)C1 [Compound 24]	100 to 1000 nM
COc1cc(-c2cc3nccnc3c(OC[C@@H]3CN(S(C)(=O)=O)CCO3)n2)ccc1OCCN(C)C [Compound 126]	100 to 1000 nM
NC(=O)N1CCO[C@H](COc2nc(-c3ccc(N4CCOCC4)cc3)cc3nccnc23)C1 [Compound 63]	100 to 1000 nM
CN(C)c1ccc(-c2cc3nccnc3c(OC[C@@H]3CN(C(=O)CCC#N)CCO3)n2)cc1 [Compound 77]	100 to 1000 nM
CC(C)(O)C1CCN(c2ccc(-c3cc4nccnc4c(OC[C@@H]4CN(S(C)(=O)=O)CCO4)n3)cc2)CC1 [Compound 22]	1 to 100 nM
CN1CCN(c2ccc(-c3cc4nccnc4c(OC[C@@H]4CN(S(N)(=O)=O)CCO4)n3)cc2)CC1 [Compound 64]	100 to 1000 nM
CS(=O)(=O)N1CCO[C@H](COc2nc(-c3ccc(N4CCCCC4)cc3)cc3nccnc23)C1 [Compound 21]	1 to 100 nM
CNc1ccc(-c2cc3nccnc3c(OC[C@@H]3CN(S(C)(=O)=O)CCO3)n2)cc1 [Compound 36]	1 to 100 nM
CCS(=O)(=O)N1CCC(c2ccc(-c3cc4nccnc4c(OC[C@@H]4CN(C(C)=O)CCO4)n3)cc2)CC1 [Compound 23]	100 to 1000 nM
CC(=O)N1CCO[C@H](COc2nc(-c3ccc(N4CCN(CCO)CC4)cc3)cc3nccnc23)C1 [Compound 49]	100 to 1000 nM
CN(CC#N)CCS(=O)(=O)N1CCO[C@H](COc2nc(-c3ccc(N(C)C)cc3)cc3nccnc23)C1 [Compound 104]	100 to 1000 nM
CS(=O)(=O)N1CCO[C@H](COc2nc(-c3ccc(C4CCN(CCO)CC4)cc3)cc3nccnc23)C1 [Compound 58, (S)-2-(4-(4-(5-((4-(methylsulfonyl)morpholin-2-yl)methoxy)pyrido[3,4-b]pyrazin-7-yl)phenyl)piperidin-1-yl)ethanol]	100 to 1000 nM
COCCS(=O)(=O)N1CCO[C@H](COc2nc(-c3ccc(N4CCOCC4)cc3)cc3nccnc23)C1 [Compound 66]	100 to 1000 nM
CCN(CC)c1ccc(-c2cc3nccnc3c(OC[C@@H]3CN(S(C)(=O)=O)CCO3)n2)cc1 [Compound 119]	1 to 100 nM
Cc1cc(-c2cc3nccnc3c(OC[C@@H]3CN(S(C)(=O)=O)CCO3)n2)ccc1N(C)C [Compound 134]	1 to 100 nM
CN1CCN(c2ccc(-c3cc4nccnc4c(OC[C@@H]4CN(C(=O)C(F)F)CCO4)n3)cc2)CC1 [Compound 16]	1 to 100 nM
CS(=O)(=O)N1CCC(c2ccc(-c3cc4nccnc4c(O[C@@H]4CCOC4)n3)cc2)CC1 [Compound 124]	1 to 100 nM

SMILES	IC50
CN(C)c1ccc(-c2cc3nccnc3c(OC3CCCOC3)n2)cc1 (stereo not shown) [Compound 127]	1 to 100 nM
CS(=O)(=O)N1CCO[C@H](COc2nc(-c3ccc4ncccc4c3)cc3nccnc23)C1 [Compound 111]	100 to 1000 nM
NS(=O)(=O)N1CCO[C@H](COc2nc(-c3ccc(N4CCOCC4)cc3)cc3nccnc23)C1 [Compound 62]	1 to 100 nM
CN(C)c1ccc(-c2cc3nccnc3c(OC[C@@H]3CN(C(=O)[C@H]4CC[C@H](O)CC4)CCO3)n2)cc1 [Compound 74]	100 to 1000 nM
CS(=O)(=O)N1CCO[C@H](COc2nc(-c3ccc(C4CCOCC4)cc3)cc3nccnc23)C1 [Compound 11]	1 to 100 nM
CN(C)c1ccc(-c2cc3nccnc3c(O[C@@H]3CCOC3)n2)cc1 [Compound 123]	1 to 100 nM
CS(=O)(=O)N1CCO[C@H](COc2nc(-c3ccc4c(c3)OCO4)cc3nccnc23)C1 [Compound 110]	100 to 1000 nM
CNS(=O)(=O)N1CCO[C@H](COc2nc(-c3ccc(N4CCOCC4)cc3)cc3nccnc23)C1 [Compound 55]	100 to 1000 nM
CN1CCC(c2ccc(-c3cc4nccnc4c(OC[C@@H]4CN(S(C)(=O)=O)CCO4)n3)cc2)CC1 [Compound 8]	100 to 1000 nM
CC1CN(c2ccc(-c3cc4nccnc4c(OC[C@@H]4CN(S(C)(=O)=O)CCO4)n3)cc2)CCO1 (stereo partly shown) [Compound 18]	1 to 100 nM
CS(=O)(=O)N1CCO[C@H](COc2nc(-c3ccc(N4CCOCC4)c(F)c3)cc3nccnc23)C1 [Compound 7]	100 to 1000 nM
NS(=O)(=O)N1CCO[C@H](COc2nc(-c3ccc(N4CCCC4)cc3)cc3nccnc23)C1 [Compound 30]	100 to 1000 nM
CN(C)CCS(=O)(=O)N1CCO[C@H](COc2nc(-c3ccc(N4CCOCC4)cc3)cc3nccnc23)C1 [Compound 65]	100 to 1000 nM
CC(=O)N1CCN(c2ccc(-c3cc4nccnc4c(OC[C@@H]4CN(S(C)(=O)=O)CCO4)n3)cc2)CC1 [Compound 122]	1 to 100 nM
CN(C)c1ccc(-c2cc3nccnc3c(OC[C@@H]3CN(S(=O)(=O)CCN4CC[C@@H](O)C4)CCO3)n2)cc1 [Compound 102]	100 to 1000 nM
CN1CCN(c2ccc(-c3cc4nccnc4c(OC[C@@H]4CN(S(C)(=O)=O)CCO4)n3)cc2)CC1 [Compound 13]	1 to 100 nM
Cc1nccn1CCS(=O)(=O)N1CCO[C@H](COc2nc(-c3ccc(N(C)C)cc3)cc3nccnc23)C1 [Compound 101, (S)—N,N-dimethyl-4-(5-((4-(2-(2-methyl-1H-imidazol-1-yl)ethylsulfonyl)morpholin-2-yl)methoxy)pyrido[4,3-b]pyrazin-7-yl)aniline]	100 to 1000 nM
CN(C)c1ccc(-c2cc3nccnc3c(OC[C@@H]3CN(C(=O)CC#N)CCO3)n2)cc1 [Compound 76]	1 to 100 nM
CN(C)c1ccc(-c2cc3nccnc3c(OC[C@@H]3CN(C(=O)[C@@H]4CCOC4)CCO3)n2)cc1 [Compound 72]	100 to 1000 nM
CNC(=O)COc1ccc(-c2cc3nccnc3c(OC[C@@H]3CN(S(C)(=O)=O)CCO3)n2)cc1 [Compound 129]	100 to 1000 nM
O=C(C(F)F)N1CCO[C@H](COc2nc(-c3ccc(N4CCNCC4)cc3)cc3nccnc23)C1 [Compound 6, (S)-2,2-difluoro-1-(2-((7-(4-(piperazin-1-yl)phenyl)pyrido[4,3-b]pyrazin-5-yloxy)methyl)morpholino)ethanone]	100 to 1000 nM
CN(C)c1ccc(-c2cc3nccnc3c(OC[C@@H]3CN(C(=O)c4cccnc4)CCO3)n2)cc1 [Compound 78]	1 to 100 nM

SMILES	IC50
COCCN1CCC(c2ccc(-c3cc4nccnc4c(OC[C@@H]4CN(S(C)(=O)=O)CCO4)n3)cc2)CC1 [Compound 59]	100 to 1000 nM
NS(=O)(=O)N1CCO[C@H](COc2nc(-c3ccc(N4CCC(F)(F)CC4)cc3)cc3nccnc23)C1 [Compound 29]	100 to 1000 nM
O=S(=O)(C1CC1)N1CCO[C@H](COc2nc(-c3ccc(N4CCOCC4)cc3)cc3nccnc23)C1 [Compound 83]	1 to 100 nM
CNc1ccc(-c2cc3nccnc3c(O[C@@H]3CCOC3)n2)cc1 [Compound 133]	1 to 100 nM
CNC(=O)CS(=O)(=O)N1CCO[C@H](COc2nc(-c3ccc(N(C)C)cc3)cc3nccnc23)C1 [Compound 99]	100 to 1000 nM
Cn1ccc2ccc(-c3cc4nccnc4c(OC[C@@H]4CN(S(C)(=O)=O)CCO4)n3)cc21 [Compound 120]	1 to 100 nM
COc1ccc(-c2cc3nccnc3c(OC[C@@H]3CN(S(C)(=O)=O)CCO3)n2)cc1 [Compound 38]	100 to 1000 nM
CNC(=O)N1CCO[C@H](COc2nc(-c3ccc(N(C)C)cc3)cc3nccnc23)C1 [Compound 137]	1 to 100 nM
CCN(CC)c1ccc(-c2cc3nccnc3c(OC[C@@H]3CN(C(C)=O)CCO3)n2)cc1 [Compound 131]	1 to 100 nM
CCN1CCN(c2ccc(-c3cc4nccnc4c(OC[C@@H]4CN(C(=O)C(F)F)CCO4)n3)cc2)CC1 [Compound 17]	1 to 100 nM
Cn1ncc2cc(-c3cc4nccnc4c(OC[C@@H]4CN(S(C)(=O)=O)CCO4)n3)ccc21 [Compound 105]	1 to 100 nM
CN1CCN(c2ccc(-c3cc4nccnc4c(O[C@@H]4CCOC4)n3)cc2)CC1 [Compound 125]	1 to 100 nM
CN(C)c1ccc(-c2cc3nccnc3c(OC[C@@H]3CN(C(=O)Cc4c[nH]cn4)CCO3)n2)cc1 [Compound 84]	100 to 1000 nM
CN(C)c1ccc(-c2cc3nccnc3c(OC[C@@H]3CN(C(=O)C4CC(F)(F)C4)CCO3)n2)cc1 [Compound 71]	100 to 1000 nM
CNc1ccc(-c2cc3nccnc3c(OC[C@@H]3CN(S(C)(=O)=O)CCO3)n2)cc1F [Compound 52]	1 to 100 nM
CN(C)c1ccc(-c2cc3nccnc3c(OC[C@@H]3CN(S(=O)(=O)c4cccnc4)CCO3)n2)cc1 [Compound 92]	1 to 100 nM
CS(=O)(=O)N1CCO[C@H](COc2nc(-c3ccc(N4CCNCC4)cc3)cc3nccnc23)C1 [Compound 14]	100 to 1000 nM
CN(C)c1ccc(-c2cc3nccnc3c(OC[C@@H]3CN(S(=O)(=O)CCN4CC[C@H](O)C4)CCO3)n2)cc1 [Compound 103]	100 to 1000 nM
COC1CCN(c2ccc(-c3cc4nccnc4c(OC[C@@H]4CN(S(C)(=O)=O)CCO4)n3)cc2)CC1 [Compound 31]	1 to 100 nM
CNc1ccc(-c2cc3nccnc3c(OC[C@@H]3CN(C(=O)[C@H]4CCCO4)CCO3)n2)cc1 [Compound 51]	100 to 1000 nM
